These antisense oligonucleotides have a phosphorothioate backbone; sugars and methylation of C are not fully specified. Where only a bound is given, the exact number is not on record here.

Results on 59 sequences are retold here after the OligoGym collection.
Further: test concentration or dose not given here.

For the first data set, the target named is SMAD2. The note with it: ASO.
ACAGATTCCACAAGGTGC returned a remaining target (mRNA or protein) (fraction of control) of 0.22. Same read-out and setting: under GAGGTGGCGTTTCTGGAA stands 0.29; under CTTCCATCCCAGCAGTCT, 0.1.

Consider CCTTCTTGTCATTTCTAC, for which the remaining target (mRNA or protein) (fraction of control) was found to be 0.57. In turn, AAACTTCCCCACCTATGT showed a remaining target (mRNA or protein) (fraction of control) of 0.18.

TCACTGCTTTCTCACACC displayed a remaining target (mRNA or protein) (fraction of control) of 0.08.

The sequence CTCACACCACTTTTCTTC had a remaining target (mRNA or protein) (fraction of control) of 0.1.

In turn, TTAGTGTTTTCTGGAATG showed a remaining target (mRNA or protein) (fraction of control) of 0.48. Still for that read-out and setting: to GGCAAAACTGGTGTCTCA belongs 0.26; to GAGACCTGGTTTGTTCAG, 0.46.

Consider TGCTCCTCCAGACCCACC, for which the remaining target (mRNA or protein) (fraction of control) came out at 0.01.

Turning to CTCTCCTCCGCCTGCTCC, the remaining target (mRNA or protein) (fraction of control) was 0.01. The sequence TATTACAGTTTTGAGTGG displayed a remaining target (mRNA or protein) (fraction of control) of 0.52.

Regarding GGTAACACATTTAGTATT, the remaining target (mRNA or protein) (fraction of control) is 0.48. As for AAAGCCATCTACAGTGAG, the remaining target (mRNA or protein) (fraction of control) was found to be 0.34. TTCGATGGGATACCTGGA: the remaining target (mRNA or protein) (fraction of control) is 0.99. On to TTCCTGCCCATTCTGCTC, for which the remaining target (mRNA or protein) (fraction of control) was 0.08. For GAGAGCCTGTGTCCATAC, the remaining target (mRNA or protein) (fraction of control) was found to be 0.29.

GCGGAAGTTCTGTTAGGA showed a remaining target (mRNA or protein) (fraction of control) of 0.43.

Turning to AGATTACAGCCTGGTGGA, the remaining target (mRNA or protein) (fraction of control) is 0.57. The same measure, in the same setting: under CGTGAATGGCAAGATGGA stands 0.47; under TCTCTGATAGTGGTAAGG, 0.49; under CTCTTCACAACTGGCGGC, 0.16. Same read-out and setting: to GGAAAGAGTAGTAGGAGA belongs 0.48; to CTTCACCAGACTTTTCAC, 0.15. Still for that read-out and setting: to AAACAGCCTCTTGTATCG belongs 0.29; to CACCCTTTCACAAAACTC, 0.15. Regarding TGTTGGTCACTTGTTTCT, the remaining target (mRNA or protein) (fraction of control) was 0.58. Same read-out and setting: under CTGAGCCAGAAGAGCAGC stands 0.18; under AATGCTATGACAGAAGAG, 0.76.

In turn, GAGTGGTGATGGCTTTCT yielded a remaining target (mRNA or protein) (fraction of control) of 0.4. For TAAACCTAAGCAGAACCT, the remaining target (mRNA or protein) (fraction of control) turned out to be 0.37.

ACTGTAGAGGTCCATTCA registered a remaining target (mRNA or protein) (fraction of control) of 0.42. The same measure, in the same setting: under CTAATCGTCCTGTTTTCT stands 0.33; under TAACATTGGAGAGTAAAC, 0.54.

For a further data set, the target named is GNAI2. Conditions: ASO.
For GGAAAGAGGAGAAAAGCG, the remaining target (mRNA or protein) (fraction of control) came to 0.65. Consider AGCTGCCTGGCGTCGTCC, for which the remaining target (mRNA or protein) (fraction of control) is 0.34.

Sequence TGAAGTGTGTCTCCACGA came in with a remaining target (mRNA or protein) (fraction of control) of 0.61. The same measure, in the same setting: under CTTCCCTGACTCCCCAGC stands 0.3; under CGCCCTCAAAGCAGTGGA, 0.61. CGTTCTTGGTGTCGGTGG returned a remaining target (mRNA or protein) (fraction of control) of 0.39. Turning to AGCTGGTATTCCCTTGAG, the remaining target (mRNA or protein) (fraction of control) worked out at 0.55. On the same count and under the same terms, under ACATCTTGAAGTGTAGGT stands 0.78. CTTGAAGGTGAAGTGTGT came in with a remaining target (mRNA or protein) (fraction of control) of 0.74. The same measure, in the same setting: to CTGTGACGCCCTCAAAGC belongs 0.51. Turning to GGGTCCGTAGCACATCTT, the remaining target (mRNA or protein) (fraction of control) was found to be 0.47. The sequence TGAGCAGGTGGACTGTGG gave a remaining target (mRNA or protein) (fraction of control) of 0.31.

The sequence CCCGCCCGACCCACCCGA had a remaining target (mRNA or protein) (fraction of control) of 0.62. On the same count and under the same terms, under AGGAAGAGGATGATGGAC stands not below 1. On the same count and under the same terms, to AAAGAGAGGAAAGAGGAG belongs 0.99; to GGGAAGCAGATGGTCAGG, 0.86; to CAACAGCAGCAACTTCAC, 0.89. AGACAAGGGCAGGCTTCA gave a remaining target (mRNA or protein) (fraction of control) of 0.37. Sequence GAACATAAGCCAGAAGGG yielded a remaining target (mRNA or protein) (fraction of control) of 0.94. The same measure, in the same setting: to CGCAGAAGATGATGGCTG belongs 0.67; to AACATTTGGACTTGGCTG, 0.76. Still for that read-out and setting: to GGCCTGTGCGAACCCCTC belongs 0.96; to TTCAGGTCCTCAAACTTA, 0.38. On to GGTTCATCTCCTCGTCCT, for which the remaining target (mRNA or protein) (fraction of control) was determined as 0.64.
